From publication PMC12238850, “Molecular determinants for recognition of serotonylated chromatin” (Nucleic Acids Research, 2025) come the findings set out here.

Where a chain is given by its changes, count along the chain named. Read-outs that look alike come from different tables or passages of the source.

Assay [1] concerns the target T1, TAF3 W894F (GST-tagged PHD) (Mus musculus, UniProt Q5HZG4, W894F).
T1 construct: Mus musculus Taf3-PHD domain (residues 857–924); made in house; host or cells: E. coli BL21(DE3)
T1 sequence (Q5HZG4 857-924 W894F): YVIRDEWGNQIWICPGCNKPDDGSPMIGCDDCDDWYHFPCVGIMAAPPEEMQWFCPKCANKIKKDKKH
In words: ITC of GST-tagged Taf3-PHD W894F. The assay is classed as binding. The text has this:
(§1) The coding sequences of Mus musculus Taf3-PHD domain (residues 857–924) and Homosapiens PHF2 (1–66), PHF8 (37–102), and BPTF(2) (2865–2921) were cloned into the pGEX2T-derived vector, pRP265NB, for bacterial expression of GST-tagged proteins. Note that the PHD fingers of M. musculus Taf3 and H. sapiens TAF3 differ in a single amino acid. A901 in mouse corresponds to T899 in human. Here, amino acid numbering corresponds to mouse Taf3 isoform 1 with UniProt ID: Q5HZG4, accessible at https://www.uniprot.org/uniprotkb/Q5HZG4/entry. Single or double mutations were introduced by mutagenesis polymerase chain reaction and validated by Sanger sequencing. A single colony of freshly transformed BL21(DE3) Escherichia coli bacteria with the corresponding construct was grown in Luria broth (LB) medium supplemented with 50 μg/ml ampicillin until an OD600 of 0.7. […]
(§2) ITC experiments were performed at 20°C with a MicroCal VP-ITC microcalorimeter (Malvern) by sequential injection of 10 μl at 300 μM histone peptide during 20 s into the sample cell containing 30 or 15 μM of GST-Taf3 (wild type or mutant) or GST-BPTF, GST-PHF2, and GST-PHF8 PHDs in ITC buffer (100 mM NaCl, 20 mM Tris–HCl, pH 7.5). […] ITC data were subsequently analysed and fitted with the one-site binding model in the MicroCal ITC Origin Analysis software 7.0 (Table 1, Figs 3B and 5A, Supplementary Table S3, and Supplementary Fig. S10). […]

For assay [2], the target named is T2, TAF3 W894I (GST-tagged PHD) (Mus musculus, UniProt Q5HZG4, W894I).
T2 construct: Mus musculus Taf3-PHD domain (residues 857–924); made in house; host or cells: E. coli BL21(DE3)
T2 sequence (Q5HZG4 857-924 W894I): T1 sequence (Q5HZG4 857-924 W894F) with F38I
The experiment in a line: ITC of GST-tagged Taf3-PHD W894I. The assay is classed as binding.
From the text: as §1, §2

[3] abbreviates: ITC, 20°C, 100 mM NaCl, 20 mM Tris–HCl, pH 7.5, one-site model, ± = standard error of fit, read-out: K D.

Consider `C[C@H](N)C(=O)N[C@@H](CCCNC(=N)N)C(=O)N[C@H](C(=O)N[C@@H](CCCC[N+](C)(C)C)C(=O)N[C@@H](CCC(N)=O)C(=O)N[C@H](C(=O)N[C@@H](C)C(=O)N[C@@H](CCCNC(=N)N)C(=O)N[C@@H](CCCCN)C(=O)N[C@@H](CO)C(=O)N[C@H](C(=O)NCC(N)=O)[C@@H](C)O)[C@@H](C)O)[C@@H](C)O` [H3K4me3], for which the Kd came out at 126 ± 12 nM in assay [1] (setting [3]) and 279 ± 17 nM in assay [2] (setting [3]).
On to `C[C@H](N)C(=O)N[C@@H](CCCNC(=N)N)C(=O)N[C@H](C(=O)N[C@@H](CCCC[N+](C)(C)C)C(=O)N[C@@H](CCC(=O)NCCc1c[nH]c2ccc(O)cc12)C(=O)N[C@H](C(=O)N[C@@H](C)C(=O)N[C@@H](CCCNC(=N)N)C(=O)N[C@@H](CCCCN)C(=O)N[C@@H](CO)C(=O)N[C@H](C(=O)NCC(N)=O)[C@@H](C)O)[C@@H](C)O)[C@@H](C)O` [H3K4me3Q5ser], for which the Kd in assay [1] turned out to be 102 ± 1 nM; in assay [2], 106 ± 8 nM.
